Test results taken from PMC5641094, “A peptide antagonist of Prep1-p160 interaction improves ceramide-induced insulin resistance in skeletal muscle cells” (Oncotarget, 2017).

What was measured:
L6 cells = test: Cell toxicity in L6 cells; type: cell-based, rat; conditions: highest concentration 100μM, data not shown
Akt phosphorylation = test: Akt phosphorylation, Western blot; type: cell-based, rat; conditions: L6 cells with C2cer 10μM or Prep1 transfection, insulin 100nM
Description: Figure 5 Effect of Prep1(54-72) peptide on Akt phosphorylation and PGC-1α and GLUT4 protein levels (A-B) L6 control and Prep1 overexpressing cells were stimulated with Insulin (100nM) and/or C2cer (10μM) and incubated with Prep1(54-72). Protein lysates were analyzed by Western blot using antibodies for pAkt, Akt and for the beta-actin, as a loading control. (C) PGC-1α and GLUT4 protein levels were measured by using specific antibodies for these proteins and beta-actin antibody was used as loading control. Blots were detected by ECL and autoradiography. The autoradiographs are representative of four independent experiments. Asterisks denote statistically significant differences (*p<0.05; **p<0.01; ***p<0.001).
Total cell lysates were obtained and separated by SDS-PAGE. Briefly, cells were solubilized with lysis buffer containing 50mM HEPES, 150mM NaCl, 10mM EDTA, 10mM Na4P2O7, 2mM sodium orthovanadate, 50mM NaF, 1mM phenylmethylsulfonyl fluoride, 10μg/ml aprotinin, 10μg/ml leupeptin, pH 7.4, and 1% (v/v) Triton X-100. Lysates were clarified by centrifugation at 12,000g for 20 minutes at 4°C. The protein concentrations in the cell lysates were measured using a Bio-Rad DC (detergent compatible) assay. Immunoprecipitation and Western blot analysis have been performed as previously described.

| Compound | toxicity for the cells (L6 cells) | effect on insulin stimulated Akt phosphorylation (Akt phosphorylation) |
| --- | --- | --- |
| CCCCCCCCCCCCC/C=C/[C@@H](O)[C@H](CO)NC(C)=O [C2cer, D-erythro-Sphingosine, N-Acetyl-, reference compound] | slightly toxic |  |
| Ac-KQAIYRHPLFPLLALLFEK-NH2 [Prep1(54-72)] |  | rescued insulin effect |
